Experiment [1] addresses BCL2 (Homo sapiens (Human), UniProt P10415). Nature of the experiment: Molecular level activity test of anti-apoptotic protein BCL2 (HTRF, binding to Bim peptide). A digest of the protocol:
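Signal comes from proximity of anti-His-labelled BCL2 and streptavidin-XL665-bound biotin-BIM peptide. Test compounds, added in 2% DMSO, were preincubated with protein and peptide for one hour; detection reagents then incubated four hours at room temperature before reading.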
On the technique in general: In TR-FRET formats the signal depends on donor and acceptor labels being close together.

Experiment [2] has as its target BCL2 (G101V) (Homo sapiens (Human), UniProt P10415, G101V). Nature of the experiment: Molecular level activity test of anti-apoptotic protein BCL2 (G101V) (HTRF, binding to Bim peptide). Conditions: inhibition of BCL2 (G101V) binding to Bim peptide, read-out: BCL-2 (G101V). A digest of the protocol:
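His-tagged recombinant BCL2 (G101V) incubated 1 h with biotin-BIM peptide and compound (2% DMSO), then anti-His and streptavidin-XL665 detection reagents added for 4 h at room temperature. HTRF signal reflects compound effect on BCL2–BIM binding.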

For experiment [3], the target named is BCL2 (D103Y) (Homo sapiens (Human), UniProt P10415, D103Y). As to the kind of experiment: Molecular level activity test of BCL2 (D103Y) (HTRF, binding to Bim peptide). The following applies: read-out: BCL-2 (D103Y) (nM) (inhibitory activity, IC50). The method, boiled down: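 His-tagged recombinant protein mixed with biotinylated BIM peptide and compound (2% DMSO), reacted 1 h. Anti-His and streptavidin-XL665 detection reagents then added and incubated 4 h at room temperature before HTRF read-out of binding inhibition.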

Experiment [4] relates to RS4; 11 cells. Nature of the experiment: Tumor proliferation inhibitory activity test (MTS) on RS4; 11. Format: cell-based. The following applies: Homo sapiens, RS4-11, 72 h, 3 days incubation. The method, boiled down: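 RS4;11 cells were exposed to serially diluted compound (0.2% DMSO control) for 3 days at 37 °C/5% CO2, followed by MTS for 3–4 h. Read-out was OD490−OD690, and inhibition was calculated relative to the DMSO and blank wells.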

The target of experiment [5] is BCL-XL (Homo sapiens (Human), UniProt Q07817). As to the kind of experiment: BCL-XL enzyme molecular level activity test (HTRF, binding to BIM peptide). Conditions: binding of BCL-XL to BIM peptide, values in nM, read-out: BCL-XL inhibitory activity (IC50). A digest of the protocol: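 HTRF binding assay: His-tagged recombinant BCL-XL with biotin-BIM peptide and compound (2% DMSO), 1 h. Anti-His and streptavidin-XL665 detection reagents added, 4 h at room temperature. Excitation 320 nm; 665/615 nm ratio reflects binding, with no-protein background and no-compound full-binding controls.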
Sequence of BCL-XL (Q07817 whole entry): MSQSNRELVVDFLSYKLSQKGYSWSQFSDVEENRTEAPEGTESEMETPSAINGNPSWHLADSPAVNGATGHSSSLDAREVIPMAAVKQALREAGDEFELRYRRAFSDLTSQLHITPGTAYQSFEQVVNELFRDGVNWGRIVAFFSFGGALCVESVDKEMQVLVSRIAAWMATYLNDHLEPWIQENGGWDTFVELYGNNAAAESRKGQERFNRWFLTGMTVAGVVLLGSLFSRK

Where [6] appears, read: HTRF, binding of BCL2 to Bim peptide, read-out: BCL2 nM (inhibitory activity, IC50).

Like-named read-outs stand apart in the source and are kept apart here.

`COc1ccc(CN2CCN(C3CC4(CCN(c5cc(Oc6cnc7[nH]ccc7c6)c(C(=O)NS(=O)(=O)c6ccc(NCC7(F)CCOCC7)c([N+](=O)[O-])c6)cc5F)CC4)C3)[C@H](c3ccccc3C(C)C)C2)cc1CN(C)C` [compound 250, (R)-2-((1H-pyrrolo[2,3-b]pyrid-5-yl)oxy)-4-(2-(4-(3-((dimethylamino)methyl)-4-methoxybenzyl)-2-(2-isopropylphenyl)piperazin-1-yl)-7-azaspiro[3.5]non-7-yl)-5-fluoro-N-((4-(((4-fluorotetrahydro-2H-pyran-4-yl)methyl)amino)-3-nitrophenyl)sulfonyl)benzamide]: the IC50 is less than 10 nM in experiment [1] (setting [6]); less than 10 nM in experiment [2]; less than 10 nM in experiment [3]; 0.5 to 1 nM in experiment [4]; greater than 500 nM in experiment [5].

`COc1ccc(CN2CCN(C3CC4(CCN(c5cc(Oc6cnc7[nH]ccc7c6)c(C(=O)NS(=O)(=O)c6ccc(NCC7(F)CCOCC7)c([N+](=O)[O-])c6)cc5F)CC4)C3)[C@H](c3ccccc3C(C)C)C2)cc1CN1CCCC1` [compound 251, (R)-2-((1H-pyrrolo[2,3-b]pyrid-5-yl)oxy)-5-fluoro-N-((4-(((4-fluorotetrahydro-2H-pyran-4-yl)methyl)amino)-3-nitrophenyl)sulfonyl)-4-(2-(2-(2-isopropylphenyl)-4-(4-methoxy-3-(pyrrolidin-1-ylmethyl)benzyl)piperazin-1-yl)-7-azaspiro[3.5]non-7-yl)benzamide]: the IC50 in experiment [1] (setting [6]) was less than 10 nM; in experiment [2], less than 10 nM; in experiment [3], less than 10 nM; in experiment [4] it was 0.5 to 1 nM; in experiment [5], greater than 500 nM.

Take `COc1ccc(CN2CCN(C3CC4(CCN(c5cc(Oc6cnc7[nH]cc(F)c7c6)c(C(=O)NS(=O)(=O)c6ccc(NCC7(F)CCOCC7)c([N+](=O)[O-])c6)cc5F)CC4)C3)[C@H](c3ccccc3C(C)C)C2)cc1OC` [compound 253, (R)-4-(2-(4-(3,4-dimethoxybenzyl)-2-(2-isopropylphenyl)piperazin-1-yl)-7-azaspiro[3.5]non-7-yl)-5-fluoro-2-((3-fluoro-1H-pyrrolo[2,3-b]pyrid-5-yl)oxy)-N-((4-(((4-fluorotetrahydro-2H-pyran-4-yl)methyl)amino)-3-nitrophenyl)sulfonyl)benzamide]: the IC50 in experiment [1] was less than 10 nM; in experiment [2], less than 10 nM; in experiment [3], less than 10 nM; in experiment [4], 0.5 to 1 nM; in experiment [5] it was greater than 500 nM.

As to `COc1ccc(CN2CCN(C3CC4(CCN(c5cc(Oc6cnc7[nH]cc(F)c7c6)c(C(=O)NS(=O)(=O)c6ccc(NCC7(F)CCOCC7)c([N+](=O)[O-])c6)cc5F)CC4)C3)[C@H](c3ccccc3C(C)C)C2)cn1` [compound 254, (R)-5-fluoro-2-((3-fluoro-1H-pyrrolo[2,3-b]pyrid-5-yl)oxy)-N-((4-(((4-fluorotetrahydro-2H-pyran-4-yl)methyl)amino)-3-nitrophenyl)sulfonyl)-4-(2-(2-(2-isopropylphenyl)-4-((6-methoxypyrid-3-yl)methyl)piperazin-1-yl)-7-azaspiro[3.5]non-7-yl)benzamide], the IC50 is less than 10 nM in experiment [1] (setting [6]); less than 10 nM in experiment [2]; less than 10 nM in experiment [3]; 0.5 to 1 nM in experiment [4]; greater than 500 nM in experiment [5].

As to `CC(C)c1ccccc1[C@@H]1CN(Cc2cnn(C)c2)CCN1C1CC2(CCN(c3cc(Oc4cnc5[nH]cc(F)c5c4)c(C(=O)NS(=O)(=O)c4ccc(NCC5(F)CCOCC5)c([N+](=O)[O-])c4)cc3F)CC2)C1` [compound 255, (R)-5-fluoro-2-((3-fluoro-1H-pyrrolo[2,3-b]pyrid-5-yl)oxy)-N-((4-(((4-fluorotetrahydro-2H-pyran-4-yl)methyl)amino)-3-nitrophenyl)sulfonyl)-4-(2-(2-(2-isopropylphenyl)-4-((1-methyl-1H-pyrazol-4-yl)methyl)piperazin-1-yl)-7-azaspiro[3.5]non-7-yl)benzamide], the IC50 is less than 10 nM in experiment [1] (setting [6]); less than 10 nM in experiment [2]; less than 10 nM in experiment [3]; 0.5 to 1 nM in experiment [4]; greater than 500 nM in experiment [5].
